Each structure is given as a SMILES string. Numbered stars: 1 amine (or outer) side, 2 acyl side, 3 side chain; on linkers, the order of the positions; unused ones are H or OH. Bridge positions count the residues as written; N and C are the ends. Square brackets hold non-standard residues; d marks the D form. Peptide text beside a SMILES is read from it. * marks the point of attachment. ξ: configuration not given here. Phe(3-CF3) = N[C@@H](Cc1cccc(C(F)(F)F)c1)C(=O)O; Ala(morpholin-4-yl) = N[C@@H](CN1CCOCC1)C(=O)O; Phe(4-COOH) = N[C@@H](Cc1ccc(C(=O)O)cc1)C(=O)O; Bip = N[C@@H](Cc1ccc(-c2ccccc2)cc1)C(=O)O; NH(CH2)14COOH = O=C(O)CCCCCCCCCCCCCCN*; Phe(3-Me) = Cc1cccc(C[C@H](N)C(=O)O)c1; NH(CH2)12COOH = O=C(O)CCCCCCCCCCCCN*; Val(3-OH) = CC(C)(O)[C@H](N)C(=O)O; X6 = O=C(Cc1ccc(CN[*:1])cc1)[*:2]; Cha = N[C@@H](CC1CCCCC1)C(=O)O; Cit = NC(=O)NCCC[C@H](N)C(=O)O; Thr(3ξ) = CC(O)[C@H](N)C(=O)O; 12Ado = NCCCCCCCCCCCC(=O)O; hSer = N[C@@H](CCO)C(=O)O; Carboxymethyl = O=C(O)C*; Orn = NCCC[C@H](N)C(=O)O; Aun = NCCCCCCCCCCC(=O)O; Dab = NCC[C@H](N)C(=O)O; Dap = NC[C@H](N)C(=O)O; AEEA = NCCOCCOCC(=O)O

Usually IC50 stands for the midpoint of a concentration-inhibition curve.

This experiment deals with T1, PD-1/PD-L1 interaction (PE-labeled human PD-L1-Ig binding to Jurkat cell line over-expressing human PD-1) (Homo sapiens, UniProt Q15116).
T1 construct: expressed in transfected cells; host or cells: Jurkat
T1 sequence (Q15116 25-288): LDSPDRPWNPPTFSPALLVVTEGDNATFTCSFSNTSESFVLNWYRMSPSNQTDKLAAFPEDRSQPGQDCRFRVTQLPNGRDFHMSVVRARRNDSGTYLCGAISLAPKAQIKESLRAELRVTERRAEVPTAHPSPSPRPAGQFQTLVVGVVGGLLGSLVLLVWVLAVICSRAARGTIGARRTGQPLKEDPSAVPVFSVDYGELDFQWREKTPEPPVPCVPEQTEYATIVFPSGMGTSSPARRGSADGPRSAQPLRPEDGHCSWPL
Nature of the experiment: Jurkat-PD-1 Cell Binding High-Content Screening Assay (CBA). It counts as cell-based. The note with it: Jurkat cell line over-expressing human PD-1; PE-labeled PD-L1-Ig 20 nM final; read-out: Jurkat hPD1-PDL1 IC50. An outline of the steps: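 Jurkat cells over-expressing human PD-1 (8×10^3 per well, DMEM/10% FCS) preincubated with compound 2 h at 37° C, then PE-labeled human PD-L1-Ig (20 nM final) added for 1 h. Cells fixed with paraformaldehyde, Hoechst-stained, and bound fluorescence quantified by high-content imaging.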
Consider `Cc1cccc(C[C@@H]2NC(=O)[C@H](CC(=O)O)NC(=O)[C@H](Cc3ccc(OCC(=O)O)cc3)NC(=O)[C@H](CN)NC(=O)CSC[C@@H](C(=O)N[C@@H](CCN)C(=O)NCCOCCOCC(=O)NCCCCCCCCCCC(=O)O)NC(=O)[C@H](CCCN)NC(=O)[C@H](C(C)C)NC(=O)[C@H](CC3CCCCC3)NC(=O)[C@H](CCN)NC(=O)[C@@H](CC(C)C)NC(=O)[C@H](CCCN)NC(=O)[C@H](Cc3ccc(O)cc3)NC(=O)[C@H](Cc3ccc(-c4ccccc4)cc3)NC(=O)[C@H](Cc3ccccc3)NC2=O)c1` [Compound 2063] ({CH2CO}-[Dap]Y(Carboxymethyl)D[Phe(3-Me)]F[Bip]Y[Orn][dL][Dab][Cha]V[Orn]C[Dab][AEEA][Aun]-OH; thioether N-14), for which the IC50 came out at 4.9 nM.

On to `Cc1cccc(C[C@@H]2NC(=O)[C@H](CC(=O)O)NC(=O)[C@H](Cc3ccc(OCC(=O)O)cc3)NC(=O)[C@H](C(C)O)NC(=O)CSC[C@@H](C(=O)NCCOCCOCC(=O)NCCCCCCCCCCC(=O)O)NC(=O)[C@H](CCC(N)=O)NC(=O)[C@H](C(C)C)NC(=O)[C@H](CC3CCCCC3)NC(=O)[C@H](CCN)NC(=O)[C@@H](CC(C)C)NC(=O)[C@H](CCN)NC(=O)[C@H](Cc3ccc(O)cc3)NC(=O)[C@H](Cc3ccc(-c4ccccc4)cc3)NC(=O)[C@H](C(C)C)NC2=O)c1` (stereo partly drawn) [Compound 3394] ({CH2CO}-[Thr(3ξ)]Y(Carboxymethyl)D[Phe(3-Me)]V[Bip]Y[Dab][dL][Dab][Cha]VQC[AEEA][Aun]-OH; thioether N-14), for which the IC50 turned out to be 6.9 nM.

As for `CC(C)C[C@H]1NC(=O)[C@H](CCCN)NC(=O)[C@H](Cc2ccc(C(=O)O)cc2)NC(=O)[C@H](Cc2ccc(-c3ccccc3)cc2)NC(=O)[C@H](Cc2ccc(C(=O)O)cc2)NC(=O)[C@H](Cc2cccc(C(F)(F)F)c2)NC(=O)[C@H](CC(=O)O)NC(=O)[C@H](Cc2ccc(OCC(=O)O)cc2)NC(=O)[C@H](C(C)C)NC(=O)CSC[C@@H](C(=O)N[C@@H](CCN)C(=O)NCCOCCOCC(=O)N[C@@H](CCC(=O)O)C(=O)N[C@@H](CCC(=O)NCCCCCCCCCCCCCCC(=O)O)C(=O)O)NC(=O)[C@H](CC(=O)O)NC(=O)[C@H](C(C)(C)O)NC(=O)[C@H](CC2CCCCC2)NC(=O)[C@H](CCN)NC1=O` [Compound 3890] ({CH2CO}-VY(Carboxymethyl)D[Phe(3-CF3)][Phe(4-COOH)][Bip][Phe(4-COOH)][Orn][dL][Dab][Cha][Val(3-OH)]DC[Dab][AEEA]EE(NH(CH2)14COOH)-OH; thioether N-14), the IC50 worked out at 434 nM.

Take `CC(C)C[C@@H]1NC(=O)[C@H](Cc2c[nH]c3ccccc23)NC(=O)[C@H](CC(=O)O)NC(=O)[C@H](Cc2ccc(OCC(=O)O)cc2)NC(=O)[C@H](CN)NC(=O)CSC[C@@H](C(=O)N[C@@H](CCN)C(=O)NCCCCCCCCCCC(=O)O)NC(=O)[C@H](CN)NC(=O)[C@H](C(C)O)NC(=O)[C@H](CC2CCCCC2)NC(=O)[C@H](CCN)NC(=O)[C@@H](CC(C)C)NC(=O)[C@H](CCCN)NC(=O)[C@H](Cc2ccc(O)cc2)NC(=O)[C@H](Cc2ccc(-c3ccccc3)cc2)NC1=O` (stereo partly drawn) [Compound 3658] ({CH2CO}-[Dap]Y(Carboxymethyl)DWL[Bip]Y[Orn][dL][Dab][Cha][Thr(3ξ)][Dap]C[Dab][Aun]-OH; thioether N-14): the IC50 turned out to be 88 nM.

As to `Cc1cccc(C[C@@H]2NC(=O)[C@H](CC(=O)O)NC(=O)[C@H](Cc3ccc(OCC(=O)O)cc3)NC(=O)[C@H](CCCNC(=N)N)NC(=O)CSC[C@@H](C(=O)N[C@@H](CCN)C(=O)NCCCCCCCCCCC(=O)O)NC(=O)[C@H](C(C)O)NC(=O)[C@H](C(C)C)NC(=O)[C@H](CC3CCCCC3)NC(=O)[C@H](CCN)NC(=O)[C@@H](CC(C)C)NC(=O)[C@H](CCCNC(N)=O)NC(=O)[C@H](Cc3ccc(OCC(=O)O)cc3)NC(=O)[C@H](Cc3ccc(-c4ccccc4)cc3)NC(=O)[C@H](C(C)C)NC2=O)c1` (stereo partly drawn) [Compound 3450] ({CH2CO}-RY(Carboxymethyl)D[Phe(3-Me)]V[Bip]Y(Carboxymethyl)[Cit][dL][Dab][Cha]V[Thr(3ξ)]C[Dab][Aun]-OH; thioether N-14), the IC50 stood at 18.3 nM.

With `CC(C)C[C@H]1NC(=O)[C@H](CCCN)NC(=O)[C@H](Cc2ccc(C(=O)O)cc2)NC(=O)[C@H](Cc2ccc(-c3ccccc3)cc2)NC(=O)[C@H](Cc2ccc(C(=O)O)cc2)NC(=O)[C@H](Cc2cccc(C(F)(F)F)c2)NC(=O)[C@H](CC(=O)O)NC(=O)[C@H](Cc2ccc(OCC(=O)O)cc2)NC(=O)[C@H](CN2CCOCC2)NC(=O)CSC[C@@H](C(=O)N[C@@H](CCN)C(=O)NCCCCCCCCCCCCC(=O)O)NC(=O)[C@H](CO)NC(=O)[C@H](C(C)(C)O)NC(=O)[C@H](CC2CCCCC2)NC(=O)[C@H](CCN)NC1=O` [Compound 2918] ({CH2CO}-[Ala(morpholin-4-yl)]Y(Carboxymethyl)D[Phe(3-CF3)][Phe(4-COOH)][Bip][Phe(4-COOH)][Orn][dL][Dab][Cha][Val(3-OH)]SC[Dab]-{NH(CH2)12COOH}; thioether N-14), the IC50 came to 22.4 nM.

On to `Cc1cccc(C[C@@H]2NC(=O)[C@H](CC(=O)O)NC(=O)[C@H](Cc3ccc(OCC(=O)O)cc3)NC(=O)[C@H](C(C)O)NC(=O)CSC[C@@H](C(=O)N[C@H](CC(N)=O)C(=O)NCCCCCCCCCCC(=O)O)NC(=O)[C@H](C(C)O)NC(=O)[C@H](C(C)C)NC(=O)[C@H](CC3CCCCC3)NC(=O)[C@H](CCN)NC(=O)[C@@H](CC(C)C)NC(=O)[C@H](CCCNC(N)=O)NC(=O)[C@H](Cc3ccc(OCC(=O)O)cc3)NC(=O)[C@H](Cc3ccc(-c4ccccc4)cc3)NC(=O)[C@H](Cc3ccc(OCC(=O)O)cc3)NC2=O)c1` (stereo partly drawn) [Compound 3499] ({CH2CO}-[Thr(3ξ)]Y(Carboxymethyl)D[Phe(3-Me)]Y(Carboxymethyl)[Bip]Y(Carboxymethyl)[Cit][dL][Dab][Cha]V[Thr(3ξ)]C[dN][Aun]-OH; thioether N-14), for which the IC50 turned out to be 15 nM.

As to `Cc1cccc(C[C@@H]2NC(=O)[C@H](CC(=O)O)NC(=O)[C@H](Cc3ccc(OCC(=O)O)cc3)NC(=O)[C@H](CN)NC(=O)CSC[C@@H](C(=O)NCc3ccc(CC(=O)NCCCCCCCCCCC(=O)O)cc3)NC(=O)[C@H]([C@@H](C)O)NC(=O)[C@H](C(C)C)NC(=O)[C@H](CC3CCCCC3)NC(=O)[C@H](CCN)NC(=O)[C@@H](CC(C)C)NC(=O)[C@H](CCCN)NC(=O)[C@H](CCCNC(N)=O)NC(=O)[C@H](Cc3ccc(-c4ccccc4)cc3)NC(=O)[C@H](C(C)C)NC2=O)c1` [Compound 2624] ({CH2CO}-[Dap]Y(Carboxymethyl)D[Phe(3-Me)]V[Bip][Cit][Orn][dL][Dab][Cha]VTC[X6][Aun]-OH; thioether N-14), the IC50 stood at 34.5 nM.

For `Cc1cccc(C[C@@H]2NC(=O)[C@H](CC(=O)O)NC(=O)[C@H](Cc3ccc(OCC(=O)O)cc3)NC(=O)[C@H](CCCNC(=N)N)NC(=O)CSC[C@@H](C(=O)N[C@@H](CCO)C(=O)N[C@@H](CCC(=O)O)C(=O)NCCCCCCCCCCCC(=O)O)NC(=O)[C@H](C(C)O)NC(=O)[C@H](C(C)C)NC(=O)[C@H](CC3CCCCC3)NC(=O)[C@H](CCN)NC(=O)[C@@H](CC(C)C)NC(=O)[C@H](CCCN)NC(=O)[C@H](CCCNC(N)=O)NC(=O)[C@H](Cc3ccc(-c4ccccc4)cc3)NC(=O)[C@H](C(C)C)NC2=O)c1` (stereo partly drawn) [Compound 3564] ({CH2CO}-RY(Carboxymethyl)D[Phe(3-Me)]V[Bip][Cit][Orn][dL][Dab][Cha]V[Thr(3ξ)]C[hSer]E[12Ado]-OH; thioether N-14), the IC50 was determined as 19.5 nM.
